1 substance from article PMC9061999, “Application of the Adverse Outcome Pathway Concept to In Vitro Nephrotoxicity Assessment: Kidney Injury due to Receptor-Mediated Endocytosis and Lysosomal Overload as a Case Study” (Frontiers in Toxicology, 2022) can be followed below.

For this series, the system named is NRK-52E cells. Nature of the series: High content imaging of lysosomes and nuclei (LysoView 633 / SYTO 16). The series is classed as cell-based, rat. The protocol:
For high content imaging, NRK-52E and RPTEC/TERT1 cells were cultivated in µ-clear half well area microtiter plates (Greiner) according to the protocol described for the cytotoxicity assay with slight modification. Briefly, NRK-52E cells were seeded at 5,000 cells in 100 µL growth medium per well and were incubated under standard growth conditions for 48 h prior to treatment. RPTEC/TERT1 cells were seeded at 15,000 cells in 100 µL growth medium per well and incubated under standard growth conditions for 7–8 days, until cells reached confluence and started to differentiate. This was indicated by the formation of three-dimensional structures referred to as domes which were identified by regular microscopic inspection of the plates. Only differentiated cell cultures with detectable domes were assayed. Cells of both cell lines were treated with serially diluted Polymyxin B sulfate (concentration range 7.8 to 2,000 µM) for 1, 2, 4, 6, or up to 24 h. The assay was carried out on three biological replicates defined as three different non-consecutive passages of the cell culture. Each biological replicate at each treatment concentration was assayed in triplicate wells per plate.
Following treatment, cells were stained with two different combinations of fluorescent dyes: NRK-52E cells with 50 pg/μL LysoView™ 633 (Biotium) and 1 µM SYTO 16 (Thermo Scientific), respectively, for lysosomes and nuclei; RPTEC/TERT1 cells with 10 nM LysoTracker™ Red (Thermo Scientific) and 10 ng/μL Hoechst 33342 (Merck-Sigma Aldrich), respectively, for lysosomes and nuclei. For each cell line a staining solution was obtained by mixing the lysosomes and nuclei dyes in cell culture medium at the concentrations indicated above. […]
Images were acquired with a fully automated fluorescence confocal Opera™ QEHS system (PerkinElmer, United Kingdom) using a ×40 air UPlanApo objective (Olympus) with 0.85 numerical aperture. […]
The images were analyzed by custom-made image analysis scripts either with the imaging analysis software Acapella (version 2.8 PerkinElmer) or Columbus (version 2.4.0 PerkinElmer). […]

With Polymyxin B, the “Treatment time at which changes in nuclei area and nuclei intensity appeared” value (NRK-52E, 250 µM) turned out to be 20 h. In addition, the “Treatment time at which lysosomal effects with nuclear changes first appeared” value (NRK-52E, 500 µM) was 12 h. The “Treatment time from which lysosomal effects were accompanied by nuclear changes” value (NRK-52E, 1,000 and 2000 µM) worked out at 8 h.
